Results taken from US5430055A, “Inhibitor of squalene synthase” (Pfizer Inc., priority 1994, dated 1995).
Values belong to the compound of their own block, whether it stands above or below them.

Assays:
[1] = test system: Cryptococcus bhutanensis, Sensitive Strain (against zaragozic Acid A); experiment: Antifungal bioassay, zone of inhibition, sensitive strain (against zaragozic acid A); type: cell-based; details: yeast nitrogen based medium, 28° C., 2 to 3 days
Experimental: (§1) The antifungal activity of the compound I was determined with a bioassay such as Cryptococcus bhutanensis FD 23971. A ten-day-old slant of C. bhutanensis was washed with 10 ml of sterile water, and 300 μl of the suspension was mixed with an assay medium consisting of 0.67% of yeast nitrogen based medium (DIFCO) and 0.5% of glucose. 150 ml of the warm medium was poured onto a sterile, polystyrene bioassay plate (245×245×20 mm) and was left to solidify. The solid medium was bored into well-separated wells with a size #2 cork bore, and 25 μl of whole broth or extracted broth was spotted into the wells. The plates were incubated at 28° C. for 2 to 3 days and the zone of inhibition was measured.
(§2) The zones of inhibition against Cryptococcus bhutanensis on a yeast nitrogen based medium are as follows: […]

[2] = test system: Cryptococcus bhutanensis, Resistant Strain; experiment: Antifungal bioassay, zone of inhibition, resistant strain; type: cell-based; details: yeast nitrogen based medium, 28° C., 2 to 3 days
Experimental: as §1, §2

squalene synthase = target: T1, squalene synthase (Homo sapiens, UniProt P37268); experiment: Squalene Synthase Inhibition Assay; type: biochemical; details: microsomal protein, 30 minutes at 37° C., pH 7.4
T1 sequence (P37268 1-417): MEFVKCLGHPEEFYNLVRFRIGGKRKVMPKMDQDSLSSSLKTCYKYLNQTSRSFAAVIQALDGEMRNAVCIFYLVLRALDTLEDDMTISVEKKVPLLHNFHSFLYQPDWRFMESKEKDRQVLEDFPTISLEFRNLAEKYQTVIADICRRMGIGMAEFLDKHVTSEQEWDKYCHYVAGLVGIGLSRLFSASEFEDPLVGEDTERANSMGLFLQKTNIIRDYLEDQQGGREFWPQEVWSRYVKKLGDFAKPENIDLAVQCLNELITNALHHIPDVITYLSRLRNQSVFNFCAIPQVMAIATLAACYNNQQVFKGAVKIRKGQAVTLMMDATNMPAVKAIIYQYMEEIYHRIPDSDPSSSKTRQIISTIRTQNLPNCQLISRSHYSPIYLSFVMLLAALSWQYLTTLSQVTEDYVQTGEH
Experimental: The squalene synthase inhibition assay was conducted in a final volume of 75 μl. The reaction is initiated by addition of 25 μl of the diluted and deoxygenated microsomal suspension to a mixture of 47 μl of the deoxygenated SQS substrate/cofactor solution and 3 μl of the deoxygenated test compound solution as set out in Table 6.
Glucose-6-phosphate 0.95 U
The microsomal suspensions were diluted to a microsomal protein concentration of 1 mg/ml and deoxygenated by repetitive cycles of evacuation and airation with nitrogen. […] Control incubations received 3 μl of deoxygenated dimethyl sulfoxide and enzyme blanks received 25 μl of deoxygenated PMED buffer (50 mM K2 PO4 (pH=7.4), 5 mM MgCl2, 1 mM EDTA, 5 mM dithiothreitol). Assay tubes were immediately flushed with nitrogen and capped, and the solution was vortexed gently. Following 30 minutes of incubation at 37° C., reactions were terminated by addition of 40 μl of 10M sodium hydroxide. […] The region of the chromatogram from 1 cm below the squalene band (visualized with iodine vapors) to the top of the chromatogram was removed and counted in a liquid scintillation counter using Aquasol-2 liquid scintillation fluid. […]
SQS activity (overall reaction) is calculated as pmoles of [3H] squalene formed from [1-3H] […]

ras farnesyltransferase = target: T2, ras farnesyltransferase (Rattus norvegicus, UniProt Q02293+Q04631); experiment: ras Farnesyltransferase inhibition assay; type: biochemical; details: rat brain cytosol, H-ras 4 μM, 30 minutes at 37° C., pH 7.5
T2 construct: diluted rat brain cytosol; from tissue; host or cells: rat brain cytosol
Experimental: The ras farnesyltransferase inhibition assay was conducted in a final volume of 25 μL. The reaction is initiated by addition of 10 μpL of the diluted rat brain cytosol to a mixture of 15 μL of the ras farnesyltransferase substrate/cofactor solution and 0.3 μL of test compound solution as set out in Table 7.
The rat brain cytosols were diluted to a protein concentration of 3.0 mg/mL. Test compound solutions were prepared in dimethyl sulfoxide at concentrations of 25 mM (final assay concentration 300 μM). Control incubations received 0.3 μL of dimethyl sulfoxide and enzyme blanks received 10 μL rat brain homogenization buffer (50 mM tris HCl (pH=7.5), 5 mM dithiothreitol, 0.2M KCl, 20 μM ZnCl2). After a 30 minute incubation at 37° C., the reaction was terminated by addition of 200 μL of 10% (v/v) HCl in EtOH. After an additional 15 minute incubation at 37° C., 300 μl absolute EtOH were added and the entire sample was applied to a filtration well of a Packard Unifilter-GF/B 96-well plate under vacuum. After complete sample addition, the filter well was washed four times with 500 μl each of absolute ethanol and allowed to dry. The bottom of the Unifilter-GF/B plate was then sealed, 50 μl Microscint-20 liquid scintillation fluid were added to each well and the plate was heat-sealed and then counted in a Packard Top-Count liquid scintillation counter.
ras Farnesyltransferase Assay […]

[3] = test system: ras protein farnesylation; details: background statement; cited from earlier work

SMILES: C/C=C/CCCCC[C@@H]1C=C2[C@]3(CC(=O)O)CC4=C(C(=O)OC4=O)[C@H]([C@H]1C[C@@H](O)C(=O)CC/C=C/C)[C@@]2(O)OC3=O [Fraction 5 compound]
zone of inhibition [1]: 15 mm
zone of inhibition [2]: 22 mm
IC50 (squalene synthase): 48 µM
IC50 (ras farnesyltransferase): 6 µM

SMILES: C/C=C/CCCCC[C@@H]1C=C2[C@]3(CC(=O)O)CC4=C(C(=O)OC4=O)[C@@H]4[C@H]1C[C@H](C(=O)CC/C=C/C)O[C@]24OC3=O [CP-263,114]
zone of inhibition [1]: 42 mm
zone of inhibition [2]: 45 mm

IC50 (ras farnesyltransferase): 3 µM
SMILES: C=C(CC[C@]12O[C@H](C(=O)O)[C@@](O)(C(=O)O)[C@](C(=O)O)(O1)[C@H](OC(=O)/C=C/[C@@H](C)C[C@@H](C)CC)[C@H]2O)[C@@H](OC(C)=O)[C@H](C)Cc1ccccc1 [Zaragozic acid A, reference compound]
inhibition of farnesylation of ras protein [3]: inhibit farnesylation of ras protein
